Activity calls are given as the source filed them.
Tests used:
P388/ADR = test: cells; format: functional; conditions: Mus musculus
SN12K1 = test: cells; format: functional; conditions: Homo sapiens
P388 = test: cells; format: functional; conditions: Mus musculus
[1] = molecular target: T1, Calpain-2 catalytic subunit (Sus scrofa, UniProt P43367); test: m-calpain protease blockers, concentration series – biochemical, fluorogenic peptide substrate, dose response (AID 1420); format: functional
T1 sequence (P43367 whole entry): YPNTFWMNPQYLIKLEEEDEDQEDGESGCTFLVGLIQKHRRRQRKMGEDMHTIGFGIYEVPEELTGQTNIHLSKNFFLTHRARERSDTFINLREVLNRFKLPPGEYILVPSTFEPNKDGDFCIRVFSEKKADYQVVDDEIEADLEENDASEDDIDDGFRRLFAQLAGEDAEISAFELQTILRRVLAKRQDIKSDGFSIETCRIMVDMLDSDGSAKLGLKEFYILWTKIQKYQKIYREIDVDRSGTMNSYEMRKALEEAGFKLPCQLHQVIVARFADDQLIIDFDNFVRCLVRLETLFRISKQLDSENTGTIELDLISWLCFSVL

Cytochrome P450 1A2 = molecular target: T2, Cytochrome P450 1A2 (Homo sapiens, UniProt P05177);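 further: PubChem cytochrome P450 panel assay, CYP1A2 panel member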
T2 sequence (P05177 whole entry): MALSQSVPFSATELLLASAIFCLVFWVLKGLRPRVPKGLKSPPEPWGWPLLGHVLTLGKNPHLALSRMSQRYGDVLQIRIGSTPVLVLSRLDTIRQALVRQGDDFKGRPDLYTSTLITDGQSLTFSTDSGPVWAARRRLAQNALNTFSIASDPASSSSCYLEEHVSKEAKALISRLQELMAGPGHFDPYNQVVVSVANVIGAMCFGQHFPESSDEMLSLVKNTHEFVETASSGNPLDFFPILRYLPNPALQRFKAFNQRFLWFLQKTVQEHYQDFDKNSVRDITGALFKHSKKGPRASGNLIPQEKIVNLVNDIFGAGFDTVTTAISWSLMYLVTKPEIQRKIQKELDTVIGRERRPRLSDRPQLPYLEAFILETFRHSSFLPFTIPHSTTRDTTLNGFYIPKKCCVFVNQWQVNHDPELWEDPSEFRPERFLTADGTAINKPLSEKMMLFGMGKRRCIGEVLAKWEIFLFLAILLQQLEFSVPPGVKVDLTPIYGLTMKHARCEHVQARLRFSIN

Cytochrome P450 2C9 = Cytochrome P450 2C9 (Homo sapiens, UniProt P11712)
[2] = luciferase reporter signal suppression in cells – H4 neuroglioma cells, luminescence, dose response (AID 1990); format: functional, cell-based
[3] = Luminescence Cell-Based Dose Response HTS to Identify Inhibitors of 5'UTR Stem-Loop Driven Prion Protein mRNA Translation in H4 Neuroglioblastoma Cells. [Related pubchem assays: 1827 (Project Summary), 1813 (Primary HTS)]; format: functional
[4] = alpha-synuclein stem-loop luciferase translation blockers – H4 neuroglioma cells, luminescence, confirmation (AID 1988); format: functional, cell-based
[5] = molecular target: FAD-linked sulfhydryl oxidase ALR (Homo sapiens, UniProt P55789); test: ALR-catalysed DTT oxidation blockers – biochemical, H2O2 detection, luminescence, cherry-pick, dose response (AID 493248)
Cytochrome P450 2C19 = Cytochrome P450 2C19 (Homo sapiens, UniProt P33261); test: Cytochrome panel assay with activity outcomes. Panel member name: p450-cyp2c19 Compounds with AC50 equal or less than 10 uM are considered active; format: functional; conditions: read-out: AC50
Cytochrome P450 3A4 = Cytochrome P450 3A4 (Homo sapiens, UniProt P08684);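 further: CYP3A4 tested as one member of a cytochrome P450 panel screen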
[6] = system: Streptococcus sp. 'group A'; test: Streptococcus pyogenes SK(-)GAS viability under kanamycin – luminescence, BacTiterGlo, confirmation, counter-screen for streptokinase expression inhibitor project, dose response (AID 1900); format: functional, organism-based
Streptococcus = test: GAS UMAA2166 growth inhibition – luminescence, BacTiterGlo, counter-screen for streptokinase expression inhibitor project, dose response (AID 1915); format: functional, organism-based;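 further: potency for reduction of bacterial viability or growth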
Vero = test: cells; format: functional; conditions: Chlorocebus sabaeus
[7] = Luminescence Cell-Based Dose Retest to Confirm Inhibitors of Cancer Stem Cells. [Related pubchem assays (depositor defined):AID2717, AID2721]; format: functional; conditions: Homo sapiens
[8] = HEK-293T viability loss after treatment – luminescence, T-cell screen hits, cytotoxicity control for TCR NF-kB inhibitor project, dose response (AID 489026); format: functional, cell-based;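 further: cells exposed to compound about 14 hours before the viability readout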
[9] = molecular target: T3, Probable nicotinate-nucleotide adenylyltransferase (Staphylococcus aureus (strain N315), UniProt P65502); format: functional, Staphylococcus aureus subsp. aureus N315;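 on IC50 Mean: confirmatory dose-response retesting of NadD inhibitor hits first found in an ultra-high-throughput screen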
[10] = molecular target: T3, Probable nicotinate-nucleotide adenylyltransferase; format: functional, Staphylococcus aureus subsp. aureus N315; conditions: read-out: IC50_Mean
[11] = molecular target: T4, Heat shock factor protein 1 (Mus musculus, UniProt P38532); test: enhancement of HSF1-driven luciferase signal – cell-based, NIH3T3, luminescence, dose retest, confirmation (AID 435004); format: functional;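 further: stress induced by proteasome inhibitor MG132 added 30 min after compound; luciferase reporter driven by HSF1 response element in NIH3T3 cells; actives raise luminescence as potentiators of the MG132 stress response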
T4 sequence (P38532 whole entry): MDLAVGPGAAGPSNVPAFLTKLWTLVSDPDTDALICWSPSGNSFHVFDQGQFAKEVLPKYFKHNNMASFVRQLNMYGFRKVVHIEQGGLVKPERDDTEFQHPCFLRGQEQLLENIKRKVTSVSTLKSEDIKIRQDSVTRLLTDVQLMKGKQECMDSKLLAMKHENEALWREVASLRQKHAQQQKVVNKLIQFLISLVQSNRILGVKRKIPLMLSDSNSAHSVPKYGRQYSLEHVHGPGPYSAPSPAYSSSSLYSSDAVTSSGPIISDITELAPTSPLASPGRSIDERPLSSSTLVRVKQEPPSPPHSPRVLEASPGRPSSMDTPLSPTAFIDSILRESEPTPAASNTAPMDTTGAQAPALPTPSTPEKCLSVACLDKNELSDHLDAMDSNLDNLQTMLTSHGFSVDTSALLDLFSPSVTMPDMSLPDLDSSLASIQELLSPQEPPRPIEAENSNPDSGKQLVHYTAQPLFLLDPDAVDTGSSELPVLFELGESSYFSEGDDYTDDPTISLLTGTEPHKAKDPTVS

Chain of Cytochrome P450 2C9 (P11712 whole entry): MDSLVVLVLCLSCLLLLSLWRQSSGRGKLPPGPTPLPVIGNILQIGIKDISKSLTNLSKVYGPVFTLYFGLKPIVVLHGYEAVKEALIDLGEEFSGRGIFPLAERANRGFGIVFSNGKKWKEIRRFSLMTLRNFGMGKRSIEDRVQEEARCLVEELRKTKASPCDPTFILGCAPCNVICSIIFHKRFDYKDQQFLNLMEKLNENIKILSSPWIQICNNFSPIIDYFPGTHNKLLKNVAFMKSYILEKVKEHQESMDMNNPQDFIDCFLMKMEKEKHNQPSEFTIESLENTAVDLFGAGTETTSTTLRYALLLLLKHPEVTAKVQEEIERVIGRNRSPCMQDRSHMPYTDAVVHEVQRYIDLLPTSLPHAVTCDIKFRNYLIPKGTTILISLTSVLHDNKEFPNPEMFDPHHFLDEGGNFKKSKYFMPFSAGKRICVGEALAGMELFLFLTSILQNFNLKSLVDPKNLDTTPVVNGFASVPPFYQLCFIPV
T3 sequence (P65502 whole entry): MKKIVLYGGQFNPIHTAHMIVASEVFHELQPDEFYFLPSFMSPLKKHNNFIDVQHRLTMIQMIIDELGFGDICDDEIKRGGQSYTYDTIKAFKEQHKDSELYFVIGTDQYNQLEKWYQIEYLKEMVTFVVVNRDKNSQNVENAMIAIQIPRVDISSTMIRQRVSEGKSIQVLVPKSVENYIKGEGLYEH
Chain of Cytochrome P450 3A4 (P08684 whole entry): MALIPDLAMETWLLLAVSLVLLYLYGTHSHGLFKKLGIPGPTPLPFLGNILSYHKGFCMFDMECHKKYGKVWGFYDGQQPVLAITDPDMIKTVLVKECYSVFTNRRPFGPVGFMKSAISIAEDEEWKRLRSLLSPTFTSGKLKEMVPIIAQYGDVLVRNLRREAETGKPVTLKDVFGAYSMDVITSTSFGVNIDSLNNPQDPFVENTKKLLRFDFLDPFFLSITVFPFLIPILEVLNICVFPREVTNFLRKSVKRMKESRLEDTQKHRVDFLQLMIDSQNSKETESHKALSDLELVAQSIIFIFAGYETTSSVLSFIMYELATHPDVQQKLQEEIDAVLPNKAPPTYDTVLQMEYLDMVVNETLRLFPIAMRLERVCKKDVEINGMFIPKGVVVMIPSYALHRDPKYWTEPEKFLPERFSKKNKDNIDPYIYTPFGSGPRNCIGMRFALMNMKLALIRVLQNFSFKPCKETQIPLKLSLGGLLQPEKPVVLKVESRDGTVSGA
Chain of FAD-linked sulfhydryl oxidase ALR (P55789 whole entry): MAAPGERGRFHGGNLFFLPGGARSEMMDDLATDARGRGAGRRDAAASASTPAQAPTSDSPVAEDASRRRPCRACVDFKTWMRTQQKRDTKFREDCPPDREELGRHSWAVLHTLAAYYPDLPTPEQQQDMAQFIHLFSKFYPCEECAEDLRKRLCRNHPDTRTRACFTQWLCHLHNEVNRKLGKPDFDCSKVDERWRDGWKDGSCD
Chain of Cytochrome P450 2C19 (P33261 whole entry): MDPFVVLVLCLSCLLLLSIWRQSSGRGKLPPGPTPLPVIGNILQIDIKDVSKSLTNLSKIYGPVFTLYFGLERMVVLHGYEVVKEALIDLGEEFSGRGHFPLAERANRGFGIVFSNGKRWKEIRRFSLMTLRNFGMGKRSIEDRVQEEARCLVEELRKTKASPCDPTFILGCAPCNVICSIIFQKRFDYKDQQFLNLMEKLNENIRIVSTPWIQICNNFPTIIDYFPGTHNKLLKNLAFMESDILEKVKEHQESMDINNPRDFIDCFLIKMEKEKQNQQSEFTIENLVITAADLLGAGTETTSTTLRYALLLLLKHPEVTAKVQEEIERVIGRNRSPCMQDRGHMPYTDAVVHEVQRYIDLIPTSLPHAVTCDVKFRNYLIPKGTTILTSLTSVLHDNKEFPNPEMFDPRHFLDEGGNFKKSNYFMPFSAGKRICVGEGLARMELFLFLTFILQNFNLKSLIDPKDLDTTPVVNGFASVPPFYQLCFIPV

CCCCCCCCCC[S+]([O-])CC(CO)NC(=O)/C=C/c1c(C)nc(O)nc1O (configuration not stated)
GI50 (P388/ADR): 2.25 µM (inactive)
GI50 (SN12K1): 0.612 µM (active)
GI50 (P388): 0.0443 µM (active)

CCOC(=O)N1CCN(C(=O)c2ccc(NS(C)(=O)=O)cc2)CC1
IC50 [1]: > 50 µM (not active)

CCCCOc1ccc(C(=O)OC(C)CN(C)C)cc1 (configuration not stated)
IC50 [1]: > 50 µM (not active)

NNC(=O)Cc1cccnc1
AC50 (Cytochrome P450 1A2): 0.631 µM (inconclusive)
AC50 (Cytochrome P450 2C9): inconclusive

O=C(COc1ccc(F)cc1)NN1C(=O)CSC1=S
IC50 [1]: 1.42 µM (not active)

Cc1[nH]c2ccc(-c3nnc(S)n3C)cc2c1C
EC50 [2]: 8.15 µM (active)
EC50 [3]: 19.2 µM (active)
EC50 [4]: 14 µM (active)
AC50 [5]: 0.664 µM (active)

C[S+]([O-])c1ccccc1-c1nc(-c2cccc(Cl)c2)no1 (configuration not stated)
IC50 [1]: > 50 µM (not active)

Cc1cccc(C(=O)ON=C(N)c2cccc([N+](=O)[O-])c2)c1
AC50 (Cytochrome P450 2C19): 7.08 µM (inconclusive)
AC50 (Cytochrome P450 3A4): 17.8 µM (inconclusive)
AC50 (Cytochrome P450 2C9): inconclusive

COc1ccccc1-c1cc(NCc2ccccc2)ncn1
AC50 (Cytochrome P450 2C9): inconclusive

CC(C)(C)c1ccc(C(=O)NNC(=S)NC(=O)c2cccnc2)cc1
EC50 [2]: 14.4 µM (active)
EC50 [6]: 0.47 µM (active)
EC50 [3]: 18.2 µM (active)
EC50 [4]: 10.8 µM (active)
EC50 (Streptococcus): 2.42 µM (active)
CC50 (Vero): > 25 µM (active)

CCSc1nnc(NC(=O)NC(CC)(C(F)(F)F)C(F)(F)F)s1
AC50 [7]: 7.03 µM (active)
CC50 (Vero): 16.5 µM (active)

CCSc1nnc(NC(=O)c2cccs2)s1
IC50 [1]: 15 µM (not active)

Cc1cc(C)cc(C(=N)c2ccccc2Cc2cccc3ccccc23)c1
AC50 (Cytochrome P450 3A4): 2.51 µM (inconclusive)
AC50 (Cytochrome P450 2C9): inconclusive

COc1cc(Cn2c(-c3nonc3N)nc3ccccc32)ccc1C
EC50 [2]: 9.66 µM (inconclusive)
EC50 [3]: 10.3 µM (active)
EC50 [4]: 7.81 µM (active)
IC50 [8]: > 80 µM (inactive)

Cc1cccc(-n2nc3c(c2NC(=O)c2ccc(Br)o2)CSC3)c1
IC50 [9]: 4.58 µM (active)
IC50 [10]: 17.5 µM (active)

COC(=O)CNC(=O)c1sc2ncn(CC(=O)Nc3ccc(C)c(Cl)c3)c(=O)c2c1C
IC50 [1]: 1.82 µM (not active)

CC1(C)CC(=O)C2=C(C1)N1C(=C(C#N)C2c2ccc(Cl)cc2)N=C(N)c2ccccc21 (configuration not stated)
EC50 [11]: > 260 µM (inactive)
CC50 (Vero): > 25 µM (active)

— ChEMBL document CHEMBL1201862, “PubChem BioAssay data set” (2004)
